Results from ChEMBL document CHEMBL1137640, “In vitro antimycobacterial spectrum of a diarylquinoline ATP synthase inhibitor” (2007).
≈ marks a conversion by molar mass, not a printed value.

Key:
Format in all cases: functional
Mycobacterium avium [1] = test: Antimicrobial activity against Mycobacterium avium 9 after 2 to 4 weeks by two fold dilution method
Mycolicibacter terrae = test: Antimicrobial activity against Mycobacterium terrae after 2 to 4 weeks by two fold dilution method
Mycobacterium avium [2] = test: Antimicrobial activity against Mycobacterium avium 21 after 2 to 4 weeks by two fold dilution method
Mycobacterium avium [3] = test: Antimicrobial activity against Mycobacterium avium 2 after 2 to 4 weeks by two fold dilution method
Mycobacterium kansasii = test: Antimicrobial activity against Mycobacterium kansasii after 2 to 4 weeks by two fold dilution method
[4] = tested on: Mycobacterium scrofulaceum; test: Antimicrobial activity against Mycobacterium scrofulaceum after 2 to 4 weeks by two fold dilution method
Mycobacterium avium [5] = test: Antimicrobial activity against Mycobacterium avium 6 after 2 to 4 weeks by two fold dilution method
[6] = tested on: Mycolicibacterium novocastrense; test: Antimicrobial activity against R207910 resistant Mycobacterium novocastrense after 2 to 4 weeks by two fold dilution method
[7] = tested on: Mycobacterium intracellulare; test: Antimicrobial activity against Mycobacterium intracellular 20 after 2 to 4 weeks by two fold dilution method
Mycobacterium shimoidei = test: Antimicrobial activity against Mycobacterium shimoidei after 2 to 4 weeks by two fold dilution method
Mycobacterium simiae = test: Antimicrobial activity against Mycobacterium simiae after 2 to 4 weeks by two fold dilution method
Mycobacterium avium [8] = test: Antimicrobial activity against Mycobacterium avium 23 after 2 to 4 weeks by two fold dilution method
Mycobacteroides chelonae = test: Antimicrobial activity against Mycobacterium chelonae after 2 to 4 weeks by two fold dilution method
Mycobacterium avium [9] = test: Antimicrobial activity against Mycobacterium avium 8 after 2 to 4 weeks by two fold dilution method
Mycolicibacterium phlei = test: Antimicrobial activity against Mycobacterium phlei after 2 to 4 weeks by two fold dilution method
Mycobacterium malmoense = test: Antimicrobial activity against Mycobacterium malmoense after 2 to 4 weeks by two fold dilution method
Mycobacterium szulgai = test: Antimicrobial activity against Mycobacterium szulgai after 2 to 4 weeks by two fold dilution method
[10] = tested on: Mycobacterium avium complex sp.; test: Antimicrobial activity against Mycobacterium avium complex isolate after 2 to 4 weeks by two fold dilution method
Mycobacterium avium [11] = test: Antimicrobial activity against Mycobacterium avium 11 after 2 to 4 weeks by two fold dilution method
Mycolicibacter hiberniae = test: Antimicrobial activity against Mycobacterium hiberniae after 2 to 4 weeks by two fold dilution method
Mycobacterium avium [12] = test: Antimicrobial activity against Mycobacterium avium 1 after 2 to 4 weeks by two fold dilution method
Mycobacterium conspicuum = test: Antimicrobial activity against Mycobacterium conspicuum after 2 to 4 weeks by two fold dilution method
Mycobacterium xenopi = test: Antimicrobial activity against Mycobacterium xenopi after 2 to 4 weeks by two fold dilution method
Mycolicibacterium vaccae = test: Antimicrobial activity against Mycobacterium vaccae after 2 to 4 weeks by two fold dilution method
[13] = tested on: Mycobacterium interjectum; test: Antimicrobial activity against Mycobacterium interjectum after 2 to 4 weeks by two fold dilution method
[14] = tested on: Mycobacterium intracellulare; test: Antimicrobial activity against Mycobacterium intracellular 7 after 2 to 4 weeks by two fold dilution method
[15] = tested on: Mycobacterium tuberculosis; test: Antimicrobial activity against drug-susceptible Mycobacterium tuberculosis isolate after 2 to 4 weeks by two fold dilution method
[16] = tested on: Mycolicibacterium fortuitum; test: Antimicrobial activity against Mycobacterium fortuitum after 2 to 4 weeks by two fold dilution method
Mycobacterium avium [17] = test: Antimicrobial activity against Mycobacterium avium 16 after 2 to 4 weeks by two fold dilution method
[18] = tested on: Mycobacterium intracellulare; test: Antimicrobial activity against Mycobacterium intracellular 14 after 2 to 4 weeks by two fold dilution method
[19] = tested on: Mycolicibacterium mageritense; test: Antimicrobial activity against Mycobacterium mageritense after 2 to 4 weeks by two fold dilution method
Mycobacterium avium [20] = test: Antimicrobial activity against Mycobacterium avium 4 after 2 to 4 weeks by two fold dilution method
Mycobacterium gordonae = test: Antimicrobial activity against Mycobacterium gordonae after 2 to 4 weeks by two fold dilution method
[21] = Mycobacterium avium complex sp.

COc1nc2ccc(Br)cc2cc1[C@@H](c1ccccc1)[C@@](O)(CCN(C)C)c1cccc2ccccc12 [BEDAQUILINE]
MIC (Mycobacterium avium [1]): 0.13 µg/mL (≈ 0.234 µM) | MIC (Mycolicibacter terrae): 0.03 µg/mL (≈ 0.054 µM) | MIC (Mycobacterium avium [2]): 0.03 µg/mL (≈ 0.054 µM) | MIC (Mycobacterium avium [3]): 0.03 µg/mL (≈ 0.054 µM) | MIC (Mycobacterium kansasii): 0.03 µg/mL (≈ 0.054 µM) | MIC [4]: 0.03 µg/mL (≈ 0.054 µM) | MIC (Mycobacterium avium [5]): 0.13 µg/mL (≈ 0.234 µM) | MIC [6]: 8 µg/mL (≈ 14.4 µM) | MIC [7]: 0.03 µg/mL (≈ 0.054 µM) | MIC (Mycobacterium shimoidei): 8 µg/mL (≈ 14.4 µM) | MIC (Mycobacterium simiae): 0.03 µg/mL (≈ 0.054 µM) | MIC (Mycobacterium avium [8]): 0.03 µg/mL (≈ 0.054 µM) | MIC (Mycobacteroides chelonae): 0.06 µg/mL (≈ 0.108 µM) | MIC (Mycobacterium avium [9]): 0.03 µg/mL (≈ 0.054 µM) | MIC (Mycolicibacterium phlei): 0.03 µg/mL (≈ 0.054 µM) | MIC (Mycobacterium malmoense): 0.5 µg/mL (≈ 0.9 µM) | MIC (Mycobacterium szulgai): 0.03 µg/mL (≈ 0.054 µM) | MI50 [10]: 0.03 µg/mL | MIC [10, 21]: 0.03 µg/mL (≈ 0.054 µM) | MIC90 [10, 21]: 0.13 µg/mL (≈ 0.234 µM) | MIC (Mycobacterium avium [11]): 0.03 µg/mL (≈ 0.054 µM) | MIC (Mycolicibacter hiberniae): 0.03 µg/mL (≈ 0.054 µM) | MIC (Mycobacterium avium [12]): 0.03 µg/mL (≈ 0.054 µM) | MIC (Mycobacterium conspicuum): 0.13 µg/mL (≈ 0.234 µM) | MIC (Mycobacterium xenopi): 4 µg/mL (≈ 7.2 µM) | MIC (Mycolicibacterium vaccae): 0.03 µg/mL (≈ 0.054 µM) | MIC [13]: 0.03 µg/mL (≈ 0.054 µM) | MIC [14]: 0.03 µg/mL (≈ 0.054 µM) | MIC [15]: 0.002 µg/mL (≈ 0.0036 µM) | MIC50 [15]: 0.03 µg/mL (≈ 0.054 µM) | MIC90 [15]: 0.06 µg/mL (≈ 0.108 µM) | MIC [16]: 0.13 µg/mL (≈ 0.234 µM) | MIC (Mycobacterium avium [17]): 0.06 µg/mL (≈ 0.108 µM) | MIC [18]: 0.03 µg/mL (≈ 0.054 µM) | MIC [19]: 0.03 µg/mL (≈ 0.054 µM) | MIC (Mycobacterium avium [20]): 0.03 µg/mL (≈ 0.054 µM) | MIC (Mycobacterium gordonae): 0.03 µg/mL (≈ 0.054 µM)
